Test results taken from ChEMBL document CHEMBL1151680, “Cytotoxic amides from the octocoral Telesto riisei” (1996).
≈ marks a conversion by molar mass, not a printed value.

Tested on: P388
Assay: Cytotoxicity against mouse P388 cells
Assay type: functional
Settings: read-out: ED50 (the source's name)

SMILES | EC50 [mg/L]
CC(=O)OCC(C)CCC[C@@H](C)[C@H]1CC[C@H]2[C@@H]3C[C@@H](O)[C@@]4(O)C[C@@H](O)CC[C@]4(C)[C@H]3CC[C@]12C (some centres not stated) | 2.4 (≈ 5.01 µM)
CC(CO)CCC[C@@H](C)[C@H]1CC[C@H]2[C@@H]3C[C@@H](O)[C@@]4(O)C[C@@H](O)CC[C@]4(C)[C@H]3CC[C@]12C (some centres not stated) | 1.3 (≈ 2.98 µM)
